Results taken from patent US6376510B1, “Neuromuscular relaxants” (Newlaxant LLC, priority 1997, dated 2002).

Legend:
[1] = system: anesthetized rats (evoked responses of anterior tibial muscle); assay: In vivo neuromuscular block and cardiovascular side effects, anesthetized rat (Example 8, Table 3); conditions: for ED50: Rattus norvegicus, iv; for VB (vagal block) / ΔBP (change in arterial blood pressure) / ΔH (change in heart rate) / RI (recovery index) / Onset: rat; for Onset: time to 80-85% neuromuscular block
Procedure, shortened: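 Pentobarbital-anesthetized (i.p.), ventilated adult male rats given saline-dissolved agents i.v.; anterior tibial EMG responses to supramaximal single or train-of-four sciatic/peroneal stimuli, plus 0.1 or 1 Hz stimulation. Doses for 50%, 80%, 90% block derived. Onset: minutes to 80-85% block; RI: 25-75% spontaneous recovery; vagal block, heart rate and blood pressure changes (%) at 80-85% blocking dose.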

[2] = system: anesthetized cats (evoked responses of anterior tibial muscle); assay: animal or person; conditions: for ED50: Felis catus, iv; for Onset: time to 80-85% neuromuscular block
Procedure, shortened: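 Adult cats anesthetized i.p. with 70 mg/kg alpha chloralose plus 0.5 g/kg ethylurethane; agents in saline given i.v. Anterior tibial muscle responses to supramaximal single or train-of-four stimuli of sciatic or peroneal nerve recorded electromyographically and mechanomyographically, alongside blood pressure and heart rate.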

[3] = system: anesthetized juvenile pigs; assay: animal or person; format: in vivo; conditions: pig; for ED50: Sus scrofa, intravenous dose causing 50% neuromuscular block, read-out: ED50; for Onset: time to 80-85% neuromuscular block
Procedure, shortened: (§1)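 Electromyographic and mechanomyographic responses quantified. Monkeys sedated with intramuscular ketamine, then general anesthesia with intravenous pentobarbital and propofol; juvenile pigs induced with inhaled halothane.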

anesthetized monkeys = assay: In vivo neuromuscular block and cardiovascular side effects, monkey (Example 8, Table 6); conditions: for ED50: Primates, intravenous dose causing 50% neuromuscular block, read-out: ED50; for Onset: time to 80-85% neuromuscular block
Procedure, shortened: as §1

rabbits = assay: In vivo neuromuscular block and cardiovascular side effects, rabbit (Example 8, Table 7); conditions: for ED50: Oryctolagus cuniculus, intravenous dose causing 50% neuromuscular block, read-out: ED50; for Onset: time to 80-85% neuromuscular block
dogs = assay: animal or person; format: in vivo; conditions: dog; for ED50: Canis lupus familiaris, intravenous dose causing 50% neuromuscular block, read-out: ED50; for Onset: time to 80-85% neuromuscular block
[4] = system: anesthetized rats (evoked responses of anterior tibial muscle); assay: Muscle relaxant (neuromuscular blocking) properties, anesthetized rat (Example 9, Table 9); conditions: for Onset: time to 80-85% neuromuscular block
Source text: (§2) The data on muscle relaxant action were obtained on anesthetized rats, and when indicated, also on juvenile pigs
(§3) Adult, male albino rats were anesthetized with pentobarbital injected intraperitoneally. Juvenile, Duroc pigs 9-12 kg body weight were anesthetized with Chloralose Nembutal sodium mixture intraperitoneally after deep sedation with inhaled halothane. The trachea was cannulated for artificial respiration via a small animal respirator. The carotid artery was cannulated for recording blood pressure via a transducer and heart rate by a cardiotachograph on a polygraph. One external jugular vein was cannulated for i.v. drug administration. Neuromuscular function was monitored by electromyography, recording evoked responses from the anterior tibial muscle as a result of supramaximal nerve stimuli consisting of single or “train-of-four” rectangular pulses of 0.1-0.2 msec duration every 10-12 seconds, delivered to the sciatic or common peroneal nerve by a laboratory nerve stimulator. Another mode of stimulation included repeated single stimuli delivered at 0.1 Hz or 1 Hz. […] The agents were dissolved in physiologic saline and injected intravenously at appropriate time intervals. The intensity, onset, and duration of neuromuscular block and its type were determined with each agent. Through administering several doses, the doses corresponding to 50%, 80% and 90% neuromuscular block were determined. All agents were compared with selected standard neuromuscular blocking compounds, e.g., rocuronium.
(§4) Onset=time in minutes to 80-85% neuromuscular block.
(§5) RI=recovery index, minutes, spontaneous recovery, 25-75% neuromuscular response.
(§6) VB=vagal block, %, at 80-85% neuromuscular blocking dose.
(§7) HR=change in heart rate, %, at 80-85% neuromuscular blocking dose.
(§8) BP=change in arterial blood pressure, %, at 80-85% neuromuscular blocking dose.

[5] = system: anesthetized juvenile Duroc pigs; assay: animal or person; conditions: for % VB at ED80 nmb (vagal block) / BP (change in arterial blood pressure) / HR (change in heart rate): in vivo; for RI (recovery index): spontaneous recovery, 25-75% neuromuscular response; for Onset: time to 80-85% neuromuscular block
Source text: as §2, §3, §4, §5, §6, §7, §8

[6] = at 80-85% neuromuscular blocking dose
[7] = spontaneous recovery, 25-75% neuromuscular response
[8] = cat, at 80-85% neuromuscular blocking dose
[9] = cat, spontaneous recovery, 25-75% neuromuscular response

C=CC[N+]1([C@H]2C[C@H]3[C@@H]4CC[C@H]5C[C@H](O)[C@@H](N6CCOCC6)C[C@]5(C)[C@H]4CC[C@]3(C)[C@H]2OC(C)=O)CCCC1 [Rocuronium, reference compound]
ED50 [1]: 0.45 mg/kg
VB (vagal block) ([1]; male, in vivo): 60%
ΔBP (change in arterial blood pressure) ([1]; male, in vivo): 0%
ΔH (change in heart rate) ([1]; male, in vivo): 0%
RI (recovery index) ([1]; in vivo): 1.3 min
Onset [1]: 0.95 min
ED50 [2]: 0.185 mg/kg
ΔBP (change in arterial blood pressure) ([2]; cat, in vivo): 0%
ΔH (change in heart rate) ([2]; cat, in vivo): 0%
Onset ([2]; cat): 2.1 min
RI (recovery index) ([2]; in vivo): 3.8 min
ED50 [3]: 0.35 mg/kg
RI (recovery index) ([3]; in vivo): 3.2 min
VB (vagal block) ([3]; in vivo): 47%
ΔBP (change in arterial blood pressure) ([3]; in vivo): 0%
ΔH (change in heart rate) ([3]; in vivo): 0%
Onset [3]: 1.5 min
ED50 (anesthetized monkeys): 0.013 mg/kg
RI (recovery index) (anesthetized monkeys; in vivo): 5.6 min
ΔBP (change in arterial blood pressure) (anesthetized monkeys; in vivo): 0%
ΔH (change in heart rate) (anesthetized monkeys; in vivo): 0%
Onset (anesthetized monkeys): 3.5 min
ED50 (rabbits): 0.03 mg/kg
RI (recovery index) (rabbits; in vivo): 2.4 min
ΔBP (change in arterial blood pressure) (rabbits; in vivo): 0%
ΔH (change in heart rate) (rabbits; in vivo): 0%
Onset (rabbits): 1.1 min
ED50 (dogs): 0.076 mg/kg
RI (recovery index) (dogs; in vivo): 3.3 min
ΔBP (change in arterial blood pressure) (dogs; in vivo): 0%
ΔH (change in heart rate) (dogs; in vivo): 0%
Onset (dogs): 1.9 min
ED50 ([4]; Rattus norvegicus, iv): 0.45 mg/kg
% VB at ED80 nmb (vagal block) ([4]; male, rat, in vivo): 60%
BP (change in arterial blood pressure) ([4]; male, rat, in vivo): 0%
HR (change in heart rate) ([4]; male, rat, in vivo): 0%
RI (recovery index) ([4]; rat, in vivo): 1.3 min
Onset ([4]; rat): 0.95 min
% VB at ED80 nmb (vagal block) ([5]; Duroc, pig): 47%
BP (change in arterial blood pressure) ([5]; Duroc, pig): 0%
HR (change in heart rate) ([5]; Duroc, pig): 0%
ED50 ([5]; Sus scrofa, iv): 0.35 mg/kg
RI (recovery index) ([5]; pig): 3.2 min
Onset ([5]; pig): 1.5 min

COc1cc(C[N+]2(C)[C@@H]3CC[C@H]2C[C@@H](OC(=O)C2CCC2C(=O)O[C@H]2C[C@H]4CC[C@@H](C2)[N+]4(C)Cc2ccc(OC(C)=O)c(OC)c2)C3)ccc1OC(C)=O.[Br-].[Br-] (stereo partly drawn) [bis[N-(4-acetoxy-3-methoxybenzyl)tropanium-3α-yl]cyclobutane-1,2-dicarboxylate dibromide]
ED50 [1]: 0.35 mg/kg
VB (vagal block) [1, 6]: 20%
ΔBP (change in arterial blood pressure) [1, 6]: 0%
ΔH (change in heart rate) [1, 6]: 0%
RI (recovery index) [1, 7]: 0.5 min
Onset [1]: 0.6 min
ED50 [2]: 0.16 mg/kg
VB (vagal block) [2, 8]: 20%
ΔBP (change in arterial blood pressure) [2, 8]: 0%
ΔH (change in heart rate) [2, 8]: 0%
RI (recovery index) [2, 9]: 0.5 min
Onset ([2]; cat): 0.9 min
ED50 [3]: 0.268 mg/kg
VB (vagal block) [3, 6]: 46%
ΔBP (change in arterial blood pressure) [3, 6]: 0%
ΔH (change in heart rate) [3, 6]: 0%
RI (recovery index) [3, 7]: 0.87 min
Onset [3]: 0.5 min
ED50 (anesthetized monkeys): 0.092 mg/kg
ΔBP (change in arterial blood pressure) (anesthetized monkeys; [6]): 0%
ΔH (change in heart rate) (anesthetized monkeys; [6]): 0%
RI (recovery index) (anesthetized monkeys; [7]): 0.5 min
Onset (anesthetized monkeys): 0.75 min
ED50 (rabbits): 0.075 mg/kg
ΔBP (change in arterial blood pressure) (rabbits; [6]): 0%
ΔH (change in heart rate) (rabbits; [6]): 0%
RI (recovery index) (rabbits; [7]): 0.55 min
Onset (rabbits): 0.6 min
ED50 (dogs): 0.145 mg/kg
ΔBP (change in arterial blood pressure) (dogs; [6]): −15%
ΔH (change in heart rate) (dogs; [6]): 45%
RI (recovery index) (dogs; [7]): 0.7 min
Onset (dogs): 0.85 min

Bis[N-(3,4-diacetoxybenzyl)-6-azabicyclo[3.2.1]octanium-3-yl]cyclohexane-1,3-dicarboxylate dibromide
% VB at ED80 nmb (vagal block) ([4]; rat, in vivo): 5 (2) %
BP (change in arterial blood pressure) ([4]; rat, in vivo): 0%
HR (change in heart rate) ([4]; rat, in vivo): 0%
ED50 ([4]; rat, intravenous dose causing 50% neuromuscular block, spread in brackets): 384 (42) μg/kg
RI (recovery index) ([4]; rat, spontaneous recovery, 25-75% neuromuscular response): 0.5 (0.04) min
Onset ([4]; rat): 0.7 (0.05) min
% VB at ED80 nmb (vagal block) ([5]; pig): 70%
BP (change in arterial blood pressure) ([5]; pig): 0%
HR (change in heart rate) ([5]; pig): 0%
ED50 ([5]; pig, intravenous dose causing 50% neuromuscular block): 0.78 mg/kg
RI (recovery index) ([5]; pig): 0.85 min
Onset ([5]; pig): 0.5 min

CC(=O)Oc1ccc(C[N+]2(C)[C@@H]3CC[C@H]2C[C@@H](OC(=O)CCCC(=O)O[C@H]2C[C@H]4CC[C@@H](C2)[N+]4(C)Cc2ccc(OC(C)=O)c(OC(C)=O)c2)C3)cc1OC(C)=O.[Br-].[Br-] (stereo partly drawn) [bis[N-(3,4-diacetoxybenzyl)tropanium-3α-yl]glutarate dibromide]
ED50 [1]: 0.232 mg/kg
VB (vagal block) [1, 6]: 10%
ΔBP (change in arterial blood pressure) [1, 6]: 0%
ΔH (change in heart rate) [1, 6]: 0%
RI (recovery index) [1, 7]: 0.6 min
Onset [1]: 0.75 min
ED50 [2]: 0.183 mg/kg
VB (vagal block) [2, 8]: 8%
ΔBP (change in arterial blood pressure) [2, 8]: 0%
ΔH (change in heart rate) [2, 8]: 0%
RI (recovery index) [2, 9]: 0.6 min
Onset ([2]; cat): 1 min
ED50 [3]: 0.23 mg/kg
VB (vagal block) [3, 6]: 41%
ΔBP (change in arterial blood pressure) [3, 6]: 0%
ΔH (change in heart rate) [3, 6]: 0%
RI (recovery index) [3, 7]: 1.1 min
Onset [3]: 0.95 min
ED50 (anesthetized monkeys): 0.088 mg/kg
ΔBP (change in arterial blood pressure) (anesthetized monkeys; [6]): 0%
ΔH (change in heart rate) (anesthetized monkeys; [6]): 0%
RI (recovery index) (anesthetized monkeys; [7]): 0.8 min
Onset (anesthetized monkeys): 1 min
ED50 (rabbits): 0.065 mg/kg
ΔBP (change in arterial blood pressure) (rabbits; [6]): 0%
ΔH (change in heart rate) (rabbits; [6]): 0%
RI (recovery index) (rabbits; [7]): 0.7 min
Onset (rabbits): 0.9 min
ED50 (dogs): 0.11 mg/kg
ΔBP (change in arterial blood pressure) (dogs; [6]): 0%
ΔH (change in heart rate) (dogs; [6]): 0%
RI (recovery index) (dogs; [7]): 0.6 min
Onset (dogs): 0.9 min
